{
  "source": "ChEMBL document CHEMBL1127728",
  "about": "“Docking analysis of a series of benzylamino acetylcholinesterase inhibitors with a phthalimide, benzoyl, or indanone moiety” (J Med Chem, 1994)",
  "data": [
    {"target": "T1, Acetylcholinesterase (Rattus norvegicus, UniProt P37136)", "T1 sequence (P37136 whole entry)": "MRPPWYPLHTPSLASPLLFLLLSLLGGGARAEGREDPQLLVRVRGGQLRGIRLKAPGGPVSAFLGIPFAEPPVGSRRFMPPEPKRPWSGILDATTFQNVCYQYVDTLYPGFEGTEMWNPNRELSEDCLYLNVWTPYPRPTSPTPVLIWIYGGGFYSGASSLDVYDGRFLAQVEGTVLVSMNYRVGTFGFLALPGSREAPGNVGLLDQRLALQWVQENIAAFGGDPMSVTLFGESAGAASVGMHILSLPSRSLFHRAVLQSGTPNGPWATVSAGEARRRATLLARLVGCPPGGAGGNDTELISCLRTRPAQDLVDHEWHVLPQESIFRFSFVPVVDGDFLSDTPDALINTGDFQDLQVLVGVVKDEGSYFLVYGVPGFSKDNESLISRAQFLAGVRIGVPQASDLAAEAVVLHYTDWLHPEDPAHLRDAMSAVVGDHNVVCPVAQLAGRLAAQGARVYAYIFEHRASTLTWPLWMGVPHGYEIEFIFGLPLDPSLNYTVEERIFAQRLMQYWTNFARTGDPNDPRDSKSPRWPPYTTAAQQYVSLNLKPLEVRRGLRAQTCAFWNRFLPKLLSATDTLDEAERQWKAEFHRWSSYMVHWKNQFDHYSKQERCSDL", "test": "Inhibition concentration against rat acetylcholinesterase", "units": {"IC50": "µM"}, "values": [
      {"smiles": "O=C1c2ccc([N+](=O)[O-])cc2C(=O)N1CC1CCN(Cc2ccccc2)CC1", "IC50": 3},
      {"smiles": "CCN(CCCCCN1C(=O)c2ccc([N+](=O)[O-])cc2C1=O)CCCc1ccccc1", "IC50": 0.161},
      {"smiles": "COc1ccccc1CN1CCC(CCC(=O)c2ccc(N3CCCC3)cc2)CC1", "IC50": 1.9},
      {"smiles": "O=C1c2ccccc2C(=O)N1CCC1CCN(Cc2ccccc2)CC1", "IC50": 0.03},
      {"smiles": "CCN(CCCCCCN1C(=O)c2ccc([N+](=O)[O-])cc2C1=O)Cc1ccccc1", "IC50": 0.607},
      {"smiles": "CCN(CCCCCN(C(C)=O)C(=O)/C=C/c1ccc([N+](=O)[O-])cc1)Cc1ccccc1", "IC50": 0.539},
      {"smiles": "CCN(CCCCCCCc1ccc(OC)c(OC)c1)Cc1ccccc1OC", "IC50": 1.07},
      {"smiles": "O=C1c2ccc([N+](=O)[O-])cc2C(=O)N1CCC1CCN(Cc2ccccc2)CC1", "IC50": 0.013},
      {"smiles": "CCCN(CCCCCN1C(=O)c2ccc([N+](=O)[O-])cc2C1=O)Cc1ccccc1", "IC50": 2.65},
      {"smiles": "CCN(CCCCCNC(=O)/C=C/c1ccccc1)Cc1ccccc1", "IC50": 11.8},
      {"smiles": "CCN(CCCCCC(=O)c1ccc(OC)c(OC)c1)Cc1ccccc1OC", "IC50": 0.024},
      {"smiles": "CCN(CCCCCN1C(=O)C2CCCCC2C1=O)Cc1ccccc1", "note": "(stereo unspecified)", "IC50": 18.5},
      {"smiles": "CCN(CCCCCN1C(=O)c2ccc([N+](=O)[O-])cc2C1=O)Cc1ccccc1OC", "IC50": 0.024},
      {"smiles": "CCN(CCCCCN1C(=O)c2ccc([N+](=O)[O-])cc2C1=O)Cc1cccc(OC(=O)NC)c1", "IC50": 0.00038},
      {"smiles": "CN(CCCCCCN1C(=O)c2ccc([N+](=O)[O-])cc2C1=O)Cc1ccccc1", "IC50": 0.474},
      {"smiles": "CCN(CCCCCC(=O)c1ccc(N2CCCC2)cc1)Cc1ccccc1", "IC50": 0.305},
      {"smiles": "CCN(CCCCCCC(=O)c1ccc(OC)c(OC)c1)Cc1ccccc1OC", "IC50": 0.01},
      {"smiles": "CCN(CCCCCN1C(=O)c2ccc([N+](=O)[O-])cc2C1=O)Cc1cccc(OC)c1OC", "IC50": 0.274},
      {"smiles": "CCN(CCCCCN(C(C)=O)C(=O)/C=C/c1ccccc1)Cc1ccccc1", "IC50": 2.3},
      {"smiles": "O=C1c2ccc([N+](=O)[O-])cc2C(=O)N1C1CCN(Cc2ccccc2)CC1", "IC50": 27},
      {"smiles": "CCN(CCCCCN1C(=O)c2ccc([N+](=O)[O-])cc2C1=O)CC1CCCCC1", "IC50": 1.09},
      {"smiles": "CCN(CCCCCN1C(=O)c2ccccc2C1=O)Cc1ccccc1", "IC50": 3.37},
      {"smiles": "COc1ccc(C(=O)CCC2CCN(Cc3ccccc3)CC2)cc1OC", "IC50": 0.052},
      {"smiles": "CCN(CCCCCN1C(=O)c2ccc([N+](=O)[O-])cc2C1=O)CCc1ccccc1", "IC50": 0.77},
      {"smiles": "CCN(CCCCCCOc1ccc(OC)c(OC)c1)Cc1ccccc1OC", "IC50": 0.92},
      {"smiles": "CN(CCCCCN1C(=O)c2ccc([N+](=O)[O-])cc2C1=O)Cc1ccccc1", "IC50": 1.36}
    ]}
  ]
}
